Data on four compounds can be found in PubChem BioAssay AID1845196 (Molecular Pharmacology Branch, DTP, NCI, 2023).

Where “and” joins values, the source holds several entries; their conditions need not be identical. Equal entries are not always repeated.

The experiment has as its system 292921-168-R tumor spheroid viability. Kind of experiment: Anticancer human tumor 292921-168-R patient-derived pancreatic carcinoma cell line growth inhibition. To be noted: spheroids with HUVEC and MSC; for viability, T/C: stronger effect = lower value. Put shortly:
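Single agents and combinations were tested on spheroids built from tumor cells plus HUVEC and hMSC, at half-log dilutions starting at or near clinical Cmax, else 10 microM; final DMSO 0.25% (v/v).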
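Note: spheroids exposed to compounds for 7 days.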

On to `COc1cc2c(cc1O)CCNC21CSC2c3c(OC(C)=O)c(C)c4c(c3C(COC1=O)N1C(O)C3Cc5cc(C)c(OC)c(O)c5C(C21)N3C)OCO4` (centres undefined), for which the viability, T/C (compound 94.9 pM) is 101% [middle of 10 runs]; the viability, T/C (compound 0.0003 µM) was 41.8% [middle of 10 runs]; the viability, T/C (compound 0.000949 µM) was 3.57% [middle of 10 runs]; the viability, T/C (compound 0.003 µM) is 0.16% [middle of 5 runs]. Further, the IC50 (compound alone, run of 10/25/2019) was 0.259 nM [middle of 10 runs].
In the case of `CC1COCCN1c1cc(-c2ccnn2C)c2ccnc(-c3ccn[nH]3)c2n1` (centres undefined), the viability, T/C reads like this: (compound 0.0316 µM) 26.3% and 36.1% and 39.6%; (compound 0.1 µM) 14.2% and 20.1% and 22%; (compound 0.316 µM) 11.9% and 13.8% and 14.4%; (compound 1 µM) 13.8% and 13.7% (2×); (compound 3.16 µM) 14.8% and 14.5% and 14.9%; (compound 10 µM) 16.8% and 16% and 16.7%. Also, the IC50 (curve of compound) was less than 31.6 nM.
In the case of `CC1COCCN1c1cc(-c2ccnn2C)c2ccnc(-c3ccn[nH]3)c2n1` (centres undefined) + Cn1nnc2c(C(N)=O)ncn2c1=O, the half-inhibitory concentration (IC50) reads like this: (curve of first compound, second compound 1 µM) less than 31.6 nM; (curve of first compound, second compound 3.16 µM) less than 31.6 nM; (curve of first compound, second compound 10 µM) less than 31.6 nM; (curve of first compound, second compound 31.6 µM) less than 31.6 nM; (curve of first compound, second compound 100 µM) less than 31.6 nM. Further, the viability, T/C runs as follows: (second compound 1 µM, first compound 0.0316 µM) 29%; (second compound 1 µM, first compound 0.1 µM) 15.5%; (second compound 1 µM, first compound 0.316 µM) 13%; (second compound 1 µM, first compound 1 µM) 13.1%; (second compound 1 µM, first compound 3.16 µM) 14.6%; (second compound 1 µM, first compound 10 µM) 15.8%. In addition, the viability, T/C is, setting by setting: (second compound 3.16 µM, first compound 0.0316 µM) 30.4%; (second compound 3.16 µM, first compound 0.1 µM) 17.8%; (second compound 3.16 µM, first compound 0.316 µM) 14.5%; (second compound 3.16 µM, first compound 1 µM) 13%; (second compound 3.16 µM, first compound 3.16 µM) 14.2%; (second compound 3.16 µM, first compound 10 µM) 15.8%. In addition, the viability, T/C reads like this: (second compound 10 µM, first compound 0.0316 µM) 27.9%; (second compound 10 µM, first compound 0.1 µM) 16.2%; (second compound 10 µM, first compound 0.316 µM) 12.1%; (second compound 10 µM, first compound 1 µM) 12.8%; (second compound 10 µM, first compound 3.16 µM) 15.2%; (second compound 10 µM, first compound 10 µM) 15.6%. Further, the viability, T/C by setting is: (second compound 31.6 µM, first compound 0.0316 µM) 24.3%; (second compound 31.6 µM, first compound 0.1 µM) 17.9%; (second compound 31.6 µM, first compound 0.316 µM) 12.5%; (second compound 31.6 µM, first compound 1 µM) 12.8%; (second compound 31.6 µM, first compound 3.16 µM) 13.9%; (second compound 31.6 µM, first compound 10 µM) 15.3%. Besides, the viability, T/C is, setting by setting: (second compound 100 µM, first compound 0.0316 µM) 16.9%; (second compound 100 µM, first compound 0.1 µM) 11.8%; (second compound 100 µM, first compound 0.316 µM) 9.95%; (second compound 100 µM, first compound 1 µM) 11.3%; (second compound 100 µM, first compound 3.16 µM) 13%; (second compound 100 µM, first compound 10 µM) 14.7%.
With `Cc1sc2c(c1C)C(c1ccc(Cl)cc1)=NC(CC(=O)Nc1ccc(O)cc1)c1nnc(C)n1-2` (centres undefined), the viability, T/C by setting is: (compound 0.00949 µM) 119% (2×) and 110%; (compound 0.03 µM) 124% and 90% and 120%; (compound 0.0949 µM) 132% and 104% and 113%; (compound 0.3 µM) 114% and 102% and 124%; (compound 0.949 µM) 92.9% and 71.4% and 81.5%; (compound 3 µM) 49.3% and 34.5% and 57.9%. For the same compound, the half-maximal inhibitory concentration (IC50) (curve of compound) was 2950 nM and 1850 nM and > 3000 nM.

The viability, T/C is the result in the treated group divided by that in the control group, in per cent. A word on the IC50: it is the midpoint of a concentration-inhibition curve.
